# Assay results published in paper PMC7156458, “Synthetic biology based construction of biological activity-related library of fungal decalin-containing diterpenoid pyrones” (Nature Communications, 2020).
# Biological target: Aβ42 (Homo sapiens, UniProt P05067)
# Assay: Th-T (thioflavin-T) assay of Aβ42 aggregation
# Assay type: biochemical
# Conditions: for Th-T fluorescence, mean of three wells: Aβ42 aggregation time course
# Aβ42, sequence (P05067 672-713): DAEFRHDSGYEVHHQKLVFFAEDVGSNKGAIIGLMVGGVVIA
structure (smiles),measurement,setting,value
C=C1CCC2C(C)(CCC=C(C)C)C(O)CCC2(C)C1Cc1c(OC)oc(CO)c(C(=O)OC)c1=O (centres unmarked) [Compound 13],first Th-T assay result,"Aβ42 (10 μM) ± DPPs (20 μM), room temperature",clearly delayed nuclei formation of Aβ42
same,"Th-T fluorescence, mean of three wells",reading M117,1.0387
same,"Th-T fluorescence, mean of three wells",reading M118,1.037
same,"Th-T fluorescence, mean of three wells",reading M119,1.04
same,"Th-T fluorescence, mean of three wells",reading M120,1.034
same,"Th-T fluorescence, mean of three wells",reading M121,1.036
same,"Th-T fluorescence, mean of three wells",reading M122,1.039
same,"Th-T fluorescence, mean of three wells",reading M123,1.034
same,"Th-T fluorescence, mean of three wells",reading M124,1.036
same,"Th-T fluorescence, mean of three wells",reading M125,1.037
same,"Th-T fluorescence, mean of three wells",reading M126,1.037
same,"Th-T fluorescence, mean of three wells",reading M127,1.0394
same,"Th-T fluorescence, mean of three wells",reading M128,1.038
same,"Th-T fluorescence, mean of three wells",reading M129,1.038
same,"Th-T fluorescence, mean of three wells",reading M130,1.033
same,nucleation phase of Aβ42 delayed until,Th-T fluorescence of Aβ42 alone began to increase after 4 h,6 h
same,"Th-T fluorescence, mean of three wells (Fig. 7a)","column suffix _10, measurement M19",0.2324
same,"Th-T fluorescence, mean of three wells (Fig. 7a)","column suffix _10, measurement M20",0.2323
same,"Th-T fluorescence, mean of three wells (Fig. 7a)","column suffix _10, measurement M21",0.2394
same,"Th-T fluorescence, mean of three wells (Fig. 7a)","column suffix _10, measurement M22",0.2441
same,"Th-T fluorescence, mean of three wells (Fig. 7a)","column suffix _10, measurement M23",0.249
same,"Th-T fluorescence, mean of three wells (Fig. 7a)","column suffix _10, measurement M24",0.2631
same,"Th-T fluorescence, mean of three wells (Fig. 7a)","column suffix _10, measurement M25",0.2779
same,"Th-T fluorescence, mean of three wells (Fig. 7a)","column suffix _10, measurement M26",0.3045
same,"Th-T fluorescence, mean of three wells (Fig. 7a)","column suffix _10, measurement M27",0.3354
same,"Th-T fluorescence, mean of three wells (Fig. 7a)","column suffix _10, measurement M28",0.3683
same,"Th-T fluorescence, mean of three wells (Fig. 7a)","column suffix _10, measurement M29",0.4093
same,"Th-T fluorescence, mean of three wells (Fig. 7a)","column suffix _10, measurement M30",0.4628
same,"Th-T assay signal, mean of three wells (Fig. 7a)","column suffix _10, reading M1",0.2437
same,"Th-T assay signal, mean of three wells (Fig. 7a)","column suffix _10, reading M2",0.2496
same,"Th-T assay signal, mean of three wells (Fig. 7a)","column suffix _10, reading M3",0.25
same,"Th-T assay signal, mean of three wells (Fig. 7a)","column suffix _10, reading M4",0.2515
same,"Th-T assay signal, mean of three wells (Fig. 7a)","column suffix _10, reading M5",0.2448
same,"Th-T assay signal, mean of three wells (Fig. 7a)","column suffix _10, reading M6",0.2438
same,"Th-T assay signal, mean of three wells (Fig. 7a)","column suffix _10, reading M7",0.2403
same,"Th-T assay signal, mean of three wells (Fig. 7a)","column suffix _10, reading M8",0.2367
same,"Th-T assay signal, mean of three wells (Fig. 7a)","column suffix _10, reading M9",0.231
same,"Th-T assay signal, mean of three wells (Fig. 7a)","column suffix _10, reading M10",0.233
same,"Th-T assay signal, mean of three wells (Fig. 7a)","column suffix _10, reading M11",0.2291
same,"Th-T assay signal, mean of three wells (Fig. 7a)","column suffix _10, reading M12",0.2292
same,"Th-T assay signal, mean of three wells (Fig. 7a)","column suffix _10, reading M13",0.2301
same,"Th-T assay signal, mean of three wells (Fig. 7a)","column suffix _10, reading M14",0.2289
same,"Th-T assay signal, mean of three wells (Fig. 7a)","column suffix _10, reading M15",0.2274
same,"Th-T assay signal, mean of three wells (Fig. 7a)","column suffix _10, reading M16",0.2305
same,"Th-T assay signal, mean of three wells (Fig. 7a)","column suffix _10, reading M17",0.2352
same,"Th-T assay signal, mean of three wells (Fig. 7a)","column suffix _10, reading M18",0.231
same,"Fig. 7a Th-T reading, mean of three wells","column suffix _10, reading M85",1.544
same,"Fig. 7a Th-T reading, mean of three wells","column suffix _10, reading M86",1.5365
same,"Fig. 7a Th-T reading, mean of three wells","column suffix _10, reading M87",1.543
same,"Fig. 7a Th-T reading, mean of three wells","column suffix _10, reading M88",1.544
same,"Fig. 7a Th-T reading, mean of three wells","column suffix _10, reading M89",1.563
same,"Fig. 7a Th-T reading, mean of three wells","column suffix _10, reading M90",1.554
same,"Fig. 7a Th-T reading, mean of three wells","column suffix _10, reading M91",1.5515
same,"Fig. 7a Th-T reading, mean of three wells","column suffix _10, reading M92",1.553
same,"Fig. 7a Th-T reading, mean of three wells","column suffix _10, reading M93",1.554
same,"Fig. 7a Th-T reading, mean of three wells","column suffix _10, reading M94",1.561
same,"Fig. 7a Th-T reading, mean of three wells","column suffix _10, reading M95",1.563
same,"Fig. 7a Th-T reading, mean of three wells","column suffix _10, reading M96",1.547
same,"Fig. 7a Th-T reading, mean of three wells","column suffix _10, reading M97",1.551
same,"Fig. 7a Th-T reading, mean of three wells","column suffix _10, reading M98",1.554
same,"Fig. 7a Th-T reading, mean of three wells","column suffix _10, reading M99",1.551
same,"Fig. 7a Th-T reading, mean of three wells","column suffix _10, reading M100",1.555
same,"Fig. 7a Th-T reading, mean of three wells","column suffix _10, reading M101",1.545
same,"Fig. 7a Th-T reading, mean of three wells","column suffix _10, reading M102",1.552
same,"Fig. 7a Th-T reading, mean of three wells","column suffix _10, reading M103",1.542
same,"Fig. 7a Th-T reading, mean of three wells","column suffix _10, reading M104",1.5457
same,"Fig. 7a Th-T reading, mean of three wells","column suffix _10, reading M105",1.553
same,"Fig. 7a Th-T reading, mean of three wells","column suffix _10, reading M106",1.551
same,"Th-T fluorescence, mean of three wells (Fig. 7a)","column suffix _20, measurement M19",0.1811
same,"Th-T fluorescence, mean of three wells (Fig. 7a)","column suffix _20, measurement M20",0.1836
same,"Th-T fluorescence, mean of three wells (Fig. 7a)","column suffix _20, measurement M21",0.1846
same,"Th-T fluorescence, mean of three wells (Fig. 7a)","column suffix _20, measurement M22",0.1853
same,"Th-T fluorescence, mean of three wells (Fig. 7a)","column suffix _20, measurement M23",0.1827
same,"Th-T fluorescence, mean of three wells (Fig. 7a)","column suffix _20, measurement M24",0.1835
same,"Th-T fluorescence, mean of three wells (Fig. 7a)","column suffix _20, measurement M25",0.1855
same,"Th-T fluorescence, mean of three wells (Fig. 7a)","column suffix _20, measurement M26",0.1899
same,"Th-T fluorescence, mean of three wells (Fig. 7a)","column suffix _20, measurement M27",0.1923
same,"Th-T fluorescence, mean of three wells (Fig. 7a)","column suffix _20, measurement M28",0.1912
same,"Th-T fluorescence, mean of three wells (Fig. 7a)","column suffix _20, measurement M29",0.1931
same,"Th-T assay signal, mean of three wells (Fig. 7a)","column suffix _20, reading M1",0.2486
same,"Th-T assay signal, mean of three wells (Fig. 7a)","column suffix _20, reading M2",0.2414
same,"Th-T assay signal, mean of three wells (Fig. 7a)","column suffix _20, reading M3",0.2279
same,"Th-T assay signal, mean of three wells (Fig. 7a)","column suffix _20, reading M4",0.2173
same,"Th-T assay signal, mean of three wells (Fig. 7a)","column suffix _20, reading M5",0.206
same,"Th-T assay signal, mean of three wells (Fig. 7a)","column suffix _20, reading M6",0.2044
same,"Th-T assay signal, mean of three wells (Fig. 7a)","column suffix _20, reading M7",0.2009
same,"Th-T assay signal, mean of three wells (Fig. 7a)","column suffix _20, reading M8",0.1963
same,"Th-T assay signal, mean of three wells (Fig. 7a)","column suffix _20, reading M9",0.1897
same,"Th-T assay signal, mean of three wells (Fig. 7a)","column suffix _20, reading M10",0.1909
same,"Th-T assay signal, mean of three wells (Fig. 7a)","column suffix _20, reading M11",0.1894
same,"Th-T assay signal, mean of three wells (Fig. 7a)","column suffix _20, reading M12",0.1902
same,"Th-T assay signal, mean of three wells (Fig. 7a)","column suffix _20, reading M13",0.1854
same,"Th-T assay signal, mean of three wells (Fig. 7a)","column suffix _20, reading M14",0.184
same,"Th-T assay signal, mean of three wells (Fig. 7a)","column suffix _20, reading M15",0.1861
same,"Th-T assay signal, mean of three wells (Fig. 7a)","column suffix _20, reading M16",0.1835
same,"Th-T assay signal, mean of three wells (Fig. 7a)","column suffix _20, reading M17",0.1852
same,"Th-T assay signal, mean of three wells (Fig. 7a)","column suffix _20, reading M18",0.1827
same,"Fig. 7a Th-T reading, mean of three wells","column suffix _20, reading M85",1.042
same,"Fig. 7a Th-T reading, mean of three wells","column suffix _20, reading M86",1.037
same,"Fig. 7a Th-T reading, mean of three wells","column suffix _20, reading M87",1.045
same,"Fig. 7a Th-T reading, mean of three wells","column suffix _20, reading M88",1.0511
same,"Fig. 7a Th-T reading, mean of three wells","column suffix _20, reading M89",1.059
same,"Fig. 7a Th-T reading, mean of three wells","column suffix _20, reading M90",1.054
same,"Fig. 7a Th-T reading, mean of three wells","column suffix _20, reading M91",1.0453
same,"Fig. 7a Th-T reading, mean of three wells","column suffix _20, reading M92",1.043
same,"Fig. 7a Th-T reading, mean of three wells","column suffix _20, reading M93",1.047
same,"Fig. 7a Th-T reading, mean of three wells","column suffix _20, reading M94",1.054
same,"Fig. 7a Th-T reading, mean of three wells","column suffix _20, reading M95",1.054
same,"Fig. 7a Th-T reading, mean of three wells","column suffix _20, reading M96",1.04
same,"Fig. 7a Th-T reading, mean of three wells","column suffix _20, reading M97",1.041
same,"Fig. 7a Th-T reading, mean of three wells","column suffix _20, reading M98",1.046
same,"Fig. 7a Th-T reading, mean of three wells","column suffix _20, reading M99",1.051
same,"Fig. 7a Th-T reading, mean of three wells","column suffix _20, reading M100",1.05
